# Test results from patent publication US20150352038A1, “A DOSAGE FORM FOR ADMINISTERING AN ACTIVE PRINCIPLE FOR ACCELERATED SLEEP INDUCTION AND/OR FOR TREATING SLEEP DISORDERS AND/OR FOR TREATING A CENTRAL NERVOUS SYSTEM DISORDER” (priority 2013, published 2015).
# Counter-ions that a name gives are not always drawn.
# How the values were obtained:
# [1] = oral; % of the ingested/administered dose; cited from earlier work
# [2] = cited from earlier work
# [3] = cited from earlier work; remark: listed apart in the source
# [4] = Time to onset of calming / sedative / sleep-inducing effect; assay type: in vivo; conditions: hydro-alcoholic solution of the invention via the oral mucous membrane
# [5] = administered orally, doses of 5 mg or 10 mg; cited from earlier work
# plasma proteins = conditions: cited from earlier work; for bonded to plasma proteins: in the blood stream
# [6] = Stability in alcohol solution; assay type: physicochemical; conditions: degree of alcohol starting from 35°
# Method: In the studies, the doses normally administered orally, at bedtime, varied over the range 0.3 mg to 5 mg. High doses of Melatonin may exert a negative paradoxical action that propagates to phases that are not phases of responding to Melatonin.
# [7] = Bioavailability after oral administration; assay type: in vivo
Compound,bioavailability when taken orally [1],half-life in the organism ([2]; in vivo),"solubility in ethanol, in words ([3]; ethanol)",further results
CN1CCC(=C2c3ccccc3C=Cc3ccccc32)CC1 [Cyproheptadine],~25%,–,–,"half-life, compared in words ([2]; compared with Doxylamine): longer than the half-life of Doxylamine"
CN(C)CCOC(C)(c1ccccc1)c1ccccn1 (stereo not shown) [Doxylamine],24.7%,around 3.5 h,easily soluble in ethanol,"time until calming effect / drowsiness appears, in words [4]: within a few minutes"
Cc1ccc(-c2nc3ccc(C)cn3c2CC(=O)N(C)C)cc1 [Zolpidem],≤ 70%,2 to 3 h,quite soluble in ethanol,"time until effect is perceptible [5]: at least 15 min; bonded to plasma proteins (plasma proteins): 92%; solubility in ethanol ([3]; ethanol): 50 mg/mL; time until calming effect / drowsiness appears, in words [4]: within only a few minutes"
Cc1nnc2n1-c1sc(Br)cc1C(c1ccccc1Cl)=NC2 [Brotizolam],around 50%,4.4 h,–,–
"COc1ccc2[nH]cc(CCNC(C)=O)c2c1 [Melatonin, N-Acetyl-5-Methoxytryptamine]",~15%,–,very soluble in ethanol,half-life ([2]; in vivo): greater than 50 min; stability in alcohol solution [6]: increases with increasing degree of alcohol
Cc1ncc2n1-c1ccc(Cl)cc1C(c1ccccc1F)=NC2 [Midazolam],36%,–,freely soluble in ethanol,"bonding to plasma proteins, in words (plasma proteins): bonds strongly to plasma proteins; solubility in water ([3]; water): 0.024 mg/mL"
"(S)—N-(2-(1,6,7,8-tetrahydro-2H-indeno-(5,4)furan-8-yl)ethyl)propionamide [Ramelteon]",1.8%,–,very easily soluble in ethanol,fraction of the orally administered dose destroyed / lost [7]: 98.2%; bonded to plasma proteins (plasma proteins): 82%
COc1ccc2cccc(CCNC(C)=O)c2c1 [Agomelatine],less than 5%,less than 2 h,–,fraction of the orally administered dose destroyed / lost [7]: 95%
Cc1ccc(-c2nc3ccc(C)cn3c2CC(=O)N(C)C)cc1 [Zolpidem tartrate],–,–,–,"solubility in water and in ethanol/alcohol, in words [3]: less soluble in water and in ethanol than Zolpidem base"
CN1CCN(C(=O)O[C@H]2c3nccnc3C(=O)N2c2ccc(Cl)cn2)CC1 [Eszopiclone],–,6 h,–,bonded to plasma proteins (plasma proteins): 60%
CN1CCN(C(=O)OC2c3nccnc3C(=O)N2c2ccc(Cl)cn2)CC1 (stereo not shown) [Zopiclone],–,–,–,"solubility in water and in ethanol/alcohol, in words [3]: not very soluble in water and alcohol"
